Measured values published in patent publication US20170354638A1, “BIXA ORELLANA COMPOSITION FOR THE TREATMENT MACULAR DEGENERATION” (BIOPHYTIS, priority 2011, published 2017).

Tested on: primary cultures of adult porcine RPE cells
Test: RPE cellular model of phototoxicity induced by A2E treatment followed by blue radiation illumination; cell survival
Type: cell-based
Details: for protective effect (cell survival vs control without A2E): concentrations of 0.1 and 1 μM, 48 h treatment, last 24 h with A2E, then blue light; for protection, percentage of survival compared to the control without A2E: 10 μM
Protocol: Given the very probable role of this mechanism in the development of AMD, the inventors used an in vitro cellular model of induced phototoxicity by the association of a treatment with A2E and illumination by blue light on RPE primary cell cultures wherein cell survival was measured. This model was developed by the Institute of Vision and allows for screening molecules aimed to discover new candidates for the treatment of dry AMD.
To test the photoprotective effect of the test substances, the inventors used a cellular model of induced phototoxicity by treatment with A2E followed by illumination with blue radiation. This model was produced from primary cultures of adult porcine RPE cells. Cell survival was determined by the ratio between the number of living cells and the total number of cells (alive+dead, respectively quantified using specific staining). Image acquisition was performed using a fluorescence microscope controlled by Metamorph software and quantifications were made by processing images acquired by a program dedicated quantification. The experiments were performed in 96-well microplates in quadruplicate and the experiment was repeated at least four times. Cells were treated for 48 hours with these compounds, the last 24 hours in the presence of A2E before induction of phototoxicity. Three concentrations (0.1, 1 and 10 μM) were tested for each compound. Some compounds were further tested at 20 μM to achieve a range of concentrations.

SMILES	protective effect (cell survival vs control without A2E)	protection, percentage of survival compared to the control without A2E [%]	protection against phototoxicity (in words) (20 μM)
CC(/C=C/C=C(\C)C(=O)O)=C\C=C\C=C(C)\C=C\C=C(/C)C(=O)O [Crocetin]	did not show a protective effect	–	–
Oc1cc(O)c2cc(O)c(-c3ccc(O)c(O)c3)[o+]c2c1 [Cyanidin]	–	~87	–
O=c1oc2c(O)c(O)cc3c(=O)oc4c(O)c(O)cc1c4c23 [Ellagic acid]	did not show a protective effect	~68	protection similar to that measured at 10 μM
CC1=C[C@H](O)CC(C)(C)[C@H]1/C=C/C(C)=C/C=C/C(C)=C/C=C/C=C(C)/C=C/C=C(C)/C=C/C1=C(C)C[C@@H](O)CC1(C)C [Lutein, reference compound]	did not show a protective effect	–	–
O=C1C[C@@H](c2ccc(O)cc2)Oc2cc(O)cc(O)c21 [Naringenin]	did not show a protective effect	–	–
O=c1cc(-c2ccc(O)c(O)c2)oc2c([C@@H]3O[C@H](CO)[C@@H](O)[C@H](O)[C@H]3O)c(O)cc(O)c12 [Orientin]	did not show a protective effect	–	–
Oc1ccc(C=Cc2cc(O)cc(O)c2)cc1 [Resveratrol, reference compound]	did not show a protective effect	–	–
CC1=C(/C=C/C(C)=C/C=C/C(C)=C/C=C/C=C(C)/C=C/C=C(C)/C=C/C2=C(C)C[C@@H](O)CC2(C)C)C(C)(C)C[C@H](O)C1 [Zeaxanthin, reference compound]	did not show a protective effect	–	–
